In patent publication US8809342B2, “Glucagon receptor modulators” (Pfizer Inc., priority 2010, dated 2014):

Each compound was assayed against T1, human glucagon receptor (Homo sapiens, UniProt P47871) (assay: Glucagon cAMP assay (Cisbio cAMP detection)).
T1 construct: expressed in transfected cells; host or cells: CHO-K1 cells, stably transfected
T1 sequence (P47871 26-477): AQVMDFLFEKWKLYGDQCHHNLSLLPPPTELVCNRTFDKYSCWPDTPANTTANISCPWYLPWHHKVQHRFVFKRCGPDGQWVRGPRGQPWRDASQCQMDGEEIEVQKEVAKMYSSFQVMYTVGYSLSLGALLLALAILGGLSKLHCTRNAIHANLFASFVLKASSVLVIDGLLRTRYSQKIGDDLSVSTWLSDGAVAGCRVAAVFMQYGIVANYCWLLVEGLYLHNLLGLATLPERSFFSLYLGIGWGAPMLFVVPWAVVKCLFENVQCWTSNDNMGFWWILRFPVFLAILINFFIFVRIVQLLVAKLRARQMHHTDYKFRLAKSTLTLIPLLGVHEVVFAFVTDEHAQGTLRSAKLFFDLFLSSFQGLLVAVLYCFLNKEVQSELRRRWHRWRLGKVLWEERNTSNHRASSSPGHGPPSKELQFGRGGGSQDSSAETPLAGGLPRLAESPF
Assay type: cell-based
Description: The Cisbio cAMP detection assay is used to determine the ability of punitive glucagon antagonist to block glucagon induced cAMP production. Potential glucagon antagonists are re-suspended and diluted in 100% DMSO. Prior to use in the Glucagon cAMP assay 100×DMSO compound stocks are diluted 20× with DMEM-F12 media (Invitrogen) containing either 0.1% or 4% BSA. 2 uls of 5× compound stocks are spotted into the appropriate wells of low binding white solid bottom 384 well plates (Corning). 2 uls of 5% DMSO or known glucagon antagonist are added to each plate to define the assay window. CHOK1 cells stably transfected with the human glucagon receptor are removed from culture flasks with cell dissociation buffer. Cell pellets are re-suspended, at a concentration of 8.3e^5 cells/ml in DMEM-F12 with or without 4% BSA and 200 uM IBMX. 6 uls of cell suspensions are added to the assay plates. Plates are incubated for 20 min at room temperature prior to the addition of a 100 pM challenge dose of glucagon. On a separate plate glucagon dose response curves are run to determine the EC50 of glucagon. After a 30 min room temperature incubation the reaction is terminated by the addition of lysis buffer containing the cAMP detection reagents. Plates are incubated for an additional 60 min at room temperature prior to being read on the Perkin Elmer fluorescent plate reader. Raw is converted to nM of cAMP produced based on a cAMP standard curve. Converted data is then analyzed using the Pfizer data analysis program. IC50 values are determined from the generated sigmoidal dose response curves. Kb values are the calculated using a modified Cheng-Prusoff equation.
In the case of CC(C)CC(Nc1ccc(C(=O)NCCC(=O)O)cn1)c1ccc(-c2ccccc2Cl)cc1 (racemic) [Example 1.44, (+/−)-3-(6-(1-(2′-chlorobiphenyl-4-yl)-3-methylbutylamino)nicotinamido)propanoic acid], the Kb is reported as 580 nM.
Work on CC(C)CC(Nc1ccc(C(=O)NCCC(=O)O)cn1)c1ccc(-c2ccc(C#N)cc2)cc1 (racemic) [Example 1.45, (+/−)-3-(6-(1-(4′-cyanobiphenyl-4-yl)-3-methylbutylamino)nicotinamido)propanoic acid] yielded a Kb of 620 nM.
In the case of CCOc1ccc(-c2ccc(C(CC(C)C)Nc3ccc(C(=O)NCCC(=O)O)cn3)cc2)cc1 (racemic) [Example 1.46, (+/−)-3-(6-(1-(4′-ethoxybiphenyl-4-yl)-3-methylbutylamino)nicotinamido)propanoic acid], the Kb is reported as 92 nM.
COc1cccc(-c2ccc(C(CC(C)C)Nc3ccc(C(=O)NCCC(=O)O)cn3)cc2)c1 (racemic) [Example 1.47, (+/−)-3-(6-(1-(3′-methoxybiphenyl-4-yl)-3-methylbutylamino)nicotinamido)propanoic acid] gave a Kb of 180 nM.
Work on Cc1cccc(C)c1-c1ccc(C(CC(C)C)Nc2ccc(C(=O)NCCC(=O)O)cn2)cc1 (racemic) [Example 1.48, (+/−)-3-(6-(1-(2′,6′-dimethylbiphenyl-4-yl)-3-methylbutylamino)nicotinamido)propanoic acid] yielded a Kb of 1200 nM.
Work on Cc1ccc(C)c(-c2ccc(C(CC(C)C)Nc3ccc(C(=O)NCCC(=O)O)cn3)cc2)c1 (racemic) [Example 1.49, (+/−)-3-(6-(1-(2′,5′-dimethylbiphenyl-4-yl)-3-methylbutylamino)nicotinamido)propanoic acid] yielded a Kb of 750 nM.
With Cc1ccc(-c2ccc(C(CC(C)C)Nc3ccc(C(=O)NCCC(=O)O)cn3)cc2)cc1 (racemic) [Example 1.50, (+/−)-3-(6-(3-methyl-1-(4′-methylbiphenyl-4-yl)butylamino)nicotinamido)propanoic acid] the Kb was 70 nM.
For CC(C)CC(Nc1ccc(C(=O)NCCC(=O)O)cn1)c1ccc(-c2ccc(F)cc2)cc1 (racemic) [Example 1.51, (+/−)-3-(6-(1-(4′-fluorobiphenyl-4-yl)-3-methylbutylamino)nicotinamido)propanoic acid], the Kb was 160 nM.
Compound COc1ccc(-c2ccc(C(CC(C)C)Nc3ccc(C(=O)NCCC(=O)O)cn3)cc2)cc1 (racemic) [Example 1.52, (+/−)-3-(6-(1-(4′-methoxybiphenyl-4-yl)-3-methylbutylamino)nicotinamido)propanoic acid] has a Kb of 120 nM.
With CC(C)CC(Nc1ccc(C(=O)NCCC(=O)O)cn1)c1ccc(-c2ccc(Cl)cc2)cc1 (racemic) [Example 1.53, (+/−)-3-(6-(1-(4′-chlorobiphenyl-4-yl)-3-methylbutylamino)nicotinamido)propanoic acid] the Kb was 46 nM.
In the case of CCc1ccc(-c2ccc(C(CC(C)C)Nc3ccc(C(=O)NCCC(=O)O)cn3)cc2)cc1 (racemic) [Example 1.54, (+/−)-3-(6-(1-(4′-ethylbiphenyl-4-yl)-3-methylbutylamino)nicotinamido)propanoic acid], the Kb is reported as 230 nM.
CC(C)CC(Nc1ccc(C(=O)NCCC(=O)O)cn1)c1ccc(-c2ccccn2)cc1 (racemic) [Example 1.55, (+/−)-3-(6-(3-methyl-1-(4-(68yridine-2-yl)phenyl)butylamino)nicotinamido)propanoic acid] was tested, and the Kb was 4800 nM.
For CC(C)CC(Nc1ccc(C(=O)NCCC(=O)O)cn1)c1ccc(-c2ccc(C(=O)N(C)C)cc2)cc1 (racemic) [Example 1.56, (+/−)-3-(6-(1-(4′-(dimethylcarbamoyl)biphenyl-4-yl)-3-methylbutylamino)nicotinamido)propanoic acid], the Kb was 5000 nM.
CC(C)CC(Nc1ccc(C(=O)NCCC(=O)O)cn1)c1ccc(-c2ccc(C(C)C)cc2)cc1 (racemic) [Example 1.57, (+/−)-3-(6-(1-(4′-isopropylbiphenyl-4-yl)-3-methylbutylamino)nicotinamido)propanoic acid] showed a Kb of 120 nM.
Work on CC(C)CC(Nc1ccc(C(=O)NCCC(=O)O)cn1)c1ccc(-c2ccc(OC(F)(F)F)cc2)cc1 (racemic) [Example 1.58, (+/−)-3-(6-(3-methyl-1-(4′-(trifluoromethoxy)biphenyl-4-yl)butylamino)nicotinamido)propanoic acid] yielded a Kb of 120 nM.
In the case of CC(C)CC(Nc1ccc(C(=O)NCCC(=O)O)cn1)c1ccc(-c2ccc(S(C)(=O)=O)cc2)cc1 (racemic) [Example 1.59, (+/−)-3-(6-(3-methyl-1-(4′-(methylsulfonyl)biphenyl-4-yl)butylamino)nicotinamido)propanoic acid], the Kb is reported as 1500 nM.
In the case of CC(C)CC(Nc1ccc(C(=O)NCCC(=O)O)cn1)c1ccc(-c2ccc(C(F)(F)F)nc2)cc1 (racemic) [Example 1.60, (+/−)-3-(6-(3-methyl-1-(4-(6-(trifluoromethyl)pyridin-3-yl)phenyl)butylamino)nicotinamido)propanoic acid], the Kb is reported as 280 nM.
Work on Cc1cc(NC(CC(C)C)c2ccc(C(=O)NCCC(=O)O)cn2)cc(C)c1-c1ccc(C(F)(F)F)cc1 (racemic) [Example 2.1, (+/−)-3-(6-(1-(2,6-dimethyl-4′-(trifluoromethyl)biphenyl-4-ylamino)-3-methylbutyl)nicotinamido)propanoic acid] yielded a Kb of 38 nM.
CC(C)CC(Nc1ccc(-c2ccc(C(F)(F)F)cc2)cc1)c1ccc(C(=O)NCCC(=O)O)cn1 (racemic) [Example 2.4, (+/−)-3-(6-(3-methyl-1-(4′-(trifluoromethyl)biphenyl-4-ylamino)butyl)nicotinamido)propanoic acid] showed a Kb of 300 nM.
For CC(C)CC(Nc1ccc(-c2ccc(C(F)(F)F)cc2)nc1)c1ccc(C(=O)NCCC(=O)O)cn1 (racemic) [Example 2.7, (+/−)-3-(6-(3-methyl-1-(6-(4-(trifluoromethyl)phenyl)pyridin-3-ylamino)butyl)nicotinamido)propanoic acid], the Kb was 280 nM.
Compound Cc1cc(NC(CC(C)C)c2ccc(C(=O)NCCC(=O)O)cn2)cnc1-c1ccc(C(F)(F)F)cc1 (racemic) [Example 2.8, (+/−)-3-(6-(3-methyl-1-(5-methyl-6-(4-(trifluoromethyl)phenyl)pyridin-3-ylamino)butyl)nicotinamido)propanoic acid] has a Kb of 130 nM.
CCCC(Nc1cnc(-c2ccc(C(F)(F)F)cc2)c(C)c1)c1ccc(C(=O)NCCC(=O)O)cn1 (racemic) [Example 2.9, (+/−)-3-(6-(1-(5-methyl-6-(4-(trifluoromethyl)phenyl)pyridin-3-ylamino)butyl)nicotinamido)propanoic acid] was tested, and the Kb was 820 nM.
CC(Nc1ccc(-c2ccc(C(F)(F)F)cc2)cc1)c1ccc(C(=O)NCCC(=O)O)cn1 (racemic) [Example 2.10, (+/−)-3-(6-(1-(4′-(trifluoromethyl)biphenyl-4-ylamino)ethyl)nicotinamido)propanoic acid] was tested, and the Kb was 1700 nM.
With CCC(Nc1cnc(-c2ccc(C(F)(F)F)cc2)c(C)c1)c1ccc(C(=O)NCCC(=O)O)cn1 (racemic) [Example 2.11, (+/−)-3-(6-(1-(5-methyl-6-(4-(trifluoromethyl)phenyl)pyridin-3-ylamino)propyl)nicotinamido)propanoic acid] the Kb was 1800 nM.
CC(C)CC(Nc1ccc(-c2ccc(C(F)(F)F)cc2)cc1)c1ccc(C(=O)NCc2nnn[nH]2)cn1 (racemic) [Example 2.12, (+/−)-N-((1H-tetrazol-5-yl)methyl)-6-(3-methyl-1-(4′-(trifluoromethyl)biphenyl-4-ylamino)butyl)nicotinamide] showed a Kb of 730 nM.
CC(C)CC(Nc1ccc(-c2ccc(C(F)(F)F)cc2)cc1)c1ccc(C(=O)Nc2nn[nH]n2)cn1 (racemic) [Example 2.13, (+/−)-6-(3-methyl-1-(4′-(trifluoromethyl)biphenyl-4-ylamino)butyl)-N-(2H-tetrazol-5-yl)nicotinamide] showed a Kb of 1900 nM.
With CCCC(Nc1ccc(-c2ccc(C(F)(F)F)cc2)nn1)c1ccc(C(=O)NCCC(=O)O)cc1 (racemic) [Example 2.14, (+/−)-3-(4-(1-(6-(4-(trifluoromethyl)phenyl)pyridazin-3-ylamino)butyl)benzamido)propanoic acid] the Kb was 290 nM.
CCCC(Nc1cnc(-c2ccc(C(F)(F)F)cc2)nc1)c1ccc(C(=O)NCCC(=O)O)cc1 (racemic) [Example 2.15, (+/−)-3-(4-(1-(2-(4-(trifluoromethyl)phenyl)pyrimidin-5-ylamino)butyl)benzamido)propanoic acid] gave a Kb of 120 nM.
CC(C)CC(Oc1ccc(-c2ccc(C(F)(F)F)cc2)cc1)c1ccc(C(=O)NCCC(=O)O)cn1 (racemic) [Example 3.1, (+/−)-3-(6-(3-methyl-1-(4′-(trifluoromethyl)biphenyl-4-Yloxy)butyl)nicotinamido)propanoic acid] gave a Kb of 1500 nM.
With CC(C)CC(Oc1ccc(C(=O)NCCC(=O)O)cn1)c1ccc(-c2ccc(C(F)(F)F)cc2)cc1 (racemic) [Example 3.2, (+/−)-3-(6-(3-methyl-1-(4′-(trifluoromethyl)biphenyl-4-yl)butoxy)nicotinamido)propanoic acid] the Kb was 1900 nM.
CC(Oc1ccc(-c2ccc(C(F)(F)F)cc2)cc1)c1ccc(C(=O)NCCC(=O)O)cn1 (racemic) [Example 3.3, (+/−)-3-(6-(1-(4′-(trifluoromethyl)biphenyl-4-yloxy)ethyl)nicotinamido) propanoic acid] showed a Kb of 6000 nM.
